In ChEMBL document CHEMBL1151439, “Bactericidal action of daptomycin against stationary-phase and nondividing Staphylococcus aureus cells” (2007):
≈ marks a conversion by molar mass, not a printed value. Calls of active or inactive are those of the source. No cut-off for these calls is given here.

Legend:
Staphylococcus aureus [1] = assay: Bactericidal activity against erythromycin-induced metabolically arrested exponential growth culture of methicillin-sensitive Staphylococcus aureus ATCC 29213 grown for 2 hrs in MHBc at 10 ug/mL after 24 hrs by time kill study; format: functional, organism-based
Staphylococcus aureus [2] = assay: Bactericidal activity against stationary phase culture of methicillin-sensitive Staphylococcus aureus ATCC 29213 grown for >17 hrs in MHBc followed by dilution in nutrient depleted MHBc assessed as logarithmic reduction in CFU per millimiter at 10 ug/mL after 24 hrs by time kill study; format: functional
Staphylococcus aureus [3] = assay: Bactericidal activity against 1 hr cold-arrested exponential growth culture of methicillin-sensitive Staphylococcus aureus ATCC 29213 grown for 2 hrs in MHBc at 2 ug/mL incubated at 0 degC by time kill study; format: functional, organism-based
Staphylococcus aureus [4] = assay: Bactericidal activity against high inoculum density stationary phase culture of methicillin-sensitive Staphylococcus aureus ATCC 29213 grown for >17 hrs in MHBc assessed as log reduction in CFU per millimiter at 100 ug/mL after 8 hrs by time kill study; format: functional
Staphylococcus aureus [5] = assay: Bactericidal activity against high inoculum density stationary phase culture of methicillin-sensitive Staphylococcus aureus ATCC 29213 grown for >17 hrs in MHBc at 100 ug/mL after prolonged treatment period by time kill study; format: functional, organism-based
Staphylococcus aureus [6] = assay: Bactericidal activity against high inoculum density stationary phase culture of methicillin-sensitive Staphylococcus aureus ATCC 29213 grown for >17 hrs in MHBc at 10 ug/mL after 24 hrs by time kill study; format: functional, organism-based
Staphylococcus aureus [7] = assay: Bactericidal activity against high inoculum density stationary phase culture of methicillin-sensitive Staphylococcus aureus ATCC 29213 grown for >17 hrs in MHBc by time kill study; format: functional, organism-based
Staphylococcus aureus [8] = assay: Bactericidal activity against high inoculum density exponential growth culture of methicillin-sensitive Staphylococcus aureus ATCC 29213 grown for 2 hrs in MHBc assessed as log reduction in cell density at 100 ug/mL after 1 hr by time kill study; format: functional, organism-based
Staphylococcus aureus [9] = assay: Bactericidal activity against stationary phase culture of methicillin-sensitive Staphylococcus aureus ATCC 29213 grown for >17 hrs in MHBc followed by dilution in nutrient depleted MHBc assessed as logarithmic reduction in CFU per millimiter at 100 ug/mL after 24 hrs by time kill study; format: functional, organism-based
Staphylococcus aureus [10] = assay: Bactericidal activity against exponential growth culture of methicillin-sensitive Staphylococcus aureus ATCC 29213 grown for 2 hrs in MHBc assessed as logarithmic reduction in CFU at 2 ug/ml within 60 mins by time kill study; format: functional
Staphylococcus aureus [11] = assay: Bactericidal activity against 24 hrs cold-arrested exponential growth culture of methicillin-sensitive Staphylococcus aureus ATCC 29213 grown for 2 hrs in MHBc at 2 ug/mL incubated at 37 degC after 2 hrs by time kill study; format: functional, organism-based
Staphylococcus aureus [12] = assay: Antibacterial activity against exponential growth culture of methicillin-sensitive Staphylococcus aureus ATCC 29213 grown for 2 hrs in MHBc by broth microdilution method; format: functional
Staphylococcus aureus [13] = assay: Bactericidal activity against CCCP-induced metabolically arrested exponential growth culture of methicillin-sensitive Staphylococcus aureus ATCC 29213 grown for 2 hrs in MHBc at 10 ug/mL after 24 hrs by time kill study; format: functional, organism-based
Staphylococcus aureus [14] = assay: Bactericidal activity against stationary phase culture of methicillin-sensitive Staphylococcus aureus ATCC 29213 grown for 17 hrs in MHBc at 32 ug/ml after 24 hrs by time kill study; format: functional, organism-based
Staphylococcus aureus [15] = assay: Bactericidal activity against high inoculum density exponential growth culture of methicillin-sensitive Staphylococcus aureus ATCC 29213 grown for 2 hrs in MHBc at 10 ug/mL after 24 hrs by time kill study; format: functional, organism-based
Staphylococcus aureus [16] = assay: Bactericidal activity against high inoculum density stationary phase culture of methicillin-sensitive Staphylococcus aureus ATCC 29213 grown for >17 hrs in MHBc at 100 ug/mL after 24 hrs by time kill study; format: functional, organism-based
Staphylococcus aureus [17] = assay: Bactericidal activity against high inoculum density stationary phase culture of methicillin-sensitive Staphylococcus aureus ATCC 29213 grown for >17 hrs in MHBc assessed as effect on viability at 100 ug/mL after 4 hrs by time kill study; format: functional, organism-based

Compound	Activity (Staphylococcus aureus [1])	Activity (Staphylococcus aureus [3])	Activity (Staphylococcus aureus [11])	MIC (Staphylococcus aureus [12]; ATCC 29213, 2 h) [µg/mL]	Activity (Staphylococcus aureus [13])	Activity (Staphylococcus aureus [15])	Activity (Staphylococcus aureus [16])	other results
CCCCCCCCCC(=O)N[C@@H](Cc1c[nH]c2ccccc12)C(=O)N[C@H](CC(N)=O)C(=O)N[C@@H](CC(=O)O)C(=O)N[C@@H]1C(=O)NCC(=O)N[C@@H](CCCN)C(=O)N[C@@H](CC(=O)O)C(=O)N[C@H](C)C(=O)N[C@@H](CC(=O)O)C(=O)NCC(=O)N[C@H](CO)C(=O)N[C@@H]([C@H](C)CC(=O)O)C(=O)N[C@@H](CC(=O)c2ccccc2N)C(=O)O[C@@H]1C	Active	Active	Active	0.5 (≈ 0.309 µM)	Active	Active	–	Activity (Staphylococcus aureus [2]): >1; Activity (Staphylococcus aureus [4]): 3; Activity (Staphylococcus aureus [5]): Active; Activity (Staphylococcus aureus [6]): inactive; Activity (Staphylococcus aureus [7]): Dose-dependent effect; Activity (Staphylococcus aureus [8]): Active; Activity (Staphylococcus aureus [9]): Active; Activity (Staphylococcus aureus [10]): 3; Activity (Staphylococcus aureus [14]): Active
O=C(O)c1cn(C2CC2)c2cc(N3CCNCC3)c(F)cc2c1=O [CIPROFLOXACIN]	inactive	inactive	Active	0.5 (≈ 1.51 µM)	inactive	Active	–	–
GENTAMICIN	–	–	–	–	–	–	Active	MIC (Staphylococcus aureus [12]): 0.25 µg/mL
CN[C@H](CC(C)C)C(=O)N[C@H]1C(=O)N[C@@H](CC(N)=O)C(=O)N[C@H]2C(=O)N[C@H]3C(=O)N[C@H](C(=O)N[C@H](C(=O)O)c4cc(O)cc(O)c4-c4cc3ccc4O)[C@H](O)c3ccc(c(Cl)c3)Oc3cc2cc(c3O[C@@H]2O[C@H](CO)[C@@H](O)[C@H](O)[C@H]2O[C@H]2C[C@](C)(N)[C@H](O)[C@H](C)O2)Oc2ccc(cc2Cl)[C@H]1O	–	–	–	–	–	–	inactive	Activity (Staphylococcus aureus [17]): inactive
CCOc1ccc2ccccc2c1C(=O)N[C@@H]1C(=O)N2[C@@H]1SC(C)(C)[C@@H]2C(=O)O [NAFCILLIN]	–	inactive	Active	0.125 (≈ 0.302 µM)	–	–	–	–
